Our source for the IC50 values is ChEMBL document CHEMBL1201862, “PubChem BioAssay data set” (2004).

Molecules are shown by their SMILES. Calls of active or inactive are those of the source. Cut-off read from the data, not from the text of the source: actives have a measured IC50 and inactives only a lower limit.

For the assay, the target named is Envelope glycoprotein gp160 (Human immunodeficiency virus 1, UniProt Q6QLK5). The experiment in a line: cell-free HIV fusion peptide-binding blockers – biochemical, uHTS, fluorescence dequenching, […] (AID 1986).
Sequence of Envelope glycoprotein gp160 (Q6QLK5 whole entry, the tested form may be a part): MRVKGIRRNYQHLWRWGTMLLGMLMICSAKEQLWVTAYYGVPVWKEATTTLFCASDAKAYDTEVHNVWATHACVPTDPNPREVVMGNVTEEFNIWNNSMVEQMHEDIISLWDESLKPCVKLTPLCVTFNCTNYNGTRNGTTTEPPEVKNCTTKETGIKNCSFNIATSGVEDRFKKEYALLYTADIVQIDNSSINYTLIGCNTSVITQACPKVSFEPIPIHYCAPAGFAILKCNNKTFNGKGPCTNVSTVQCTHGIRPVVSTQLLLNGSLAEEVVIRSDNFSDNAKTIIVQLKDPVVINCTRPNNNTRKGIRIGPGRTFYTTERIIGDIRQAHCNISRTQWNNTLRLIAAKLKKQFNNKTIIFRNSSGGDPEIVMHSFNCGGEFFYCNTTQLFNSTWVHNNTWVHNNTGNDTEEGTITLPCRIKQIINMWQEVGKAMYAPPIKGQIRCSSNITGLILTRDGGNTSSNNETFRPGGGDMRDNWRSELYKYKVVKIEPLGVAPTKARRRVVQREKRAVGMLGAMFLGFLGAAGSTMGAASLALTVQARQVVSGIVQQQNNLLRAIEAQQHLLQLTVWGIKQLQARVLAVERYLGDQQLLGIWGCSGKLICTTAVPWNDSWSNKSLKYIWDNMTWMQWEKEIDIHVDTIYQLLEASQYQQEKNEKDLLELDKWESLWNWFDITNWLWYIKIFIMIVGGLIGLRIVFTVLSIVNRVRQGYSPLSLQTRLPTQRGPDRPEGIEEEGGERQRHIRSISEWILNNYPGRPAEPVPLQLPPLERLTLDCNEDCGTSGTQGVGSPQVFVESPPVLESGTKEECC
Regarding `Cc1cc(N2C(=O)C(O)=C(C(=O)c3ccc(C)o3)C2c2cccc(Oc3ccccc3)c2)no1` (stereo not given), the 50% inhibitory concentration (IC50) (in general, the point on the concentration scale where inhibition reaches its midpoint) is 24.1 µM (active). The result for `COc1cccc(C2C3=C(N=c4s/c(=C\c5ccc(OCC(=O)O)cc5)c(=O)n42)c2ccccc2CC3)c1` (stereo not given) reads 18.6 µM (active). The result for `O=C(O)c1ccc(-c2ccc(/C=C3\NC(=O)N(Cc4ccc(Cl)cc4)C3=O)o2)cc1Cl` reads 10.7 µM (active); that for `Cc1cc(N2C(=O)C(O)=C(C(=O)c3cc4ccccc4o3)C2c2ccc(Cl)cc2)no1` (stereo not given), 15.9 µM (active).

For `CCOC(=O)c1sc(N2C(=O)C(O)=C(C(=O)c3ccc(C)o3)C2c2cccc([N+](=O)[O-])c2)nc1C` (stereo not given), the IC50 was 17.6 µM (active).
